# Patent publication US20250230165A1, “HETEROCYCLIC COMPOUNDS FOR USE IN THE TREATMENT OF CANCER” (ARTIOS PHARMA LIMITED, priority 2021, published 2025)
# Target: T1, Human Polθ polymerase domain (aa1820-2590) (Homo sapiens, UniProt O75417)
# T1 construct: Human Polθ polymerase domain (aa1820-2590) was expressed in E. coli; made in house; host or cells: E. coli
# T1 sequence (O75417 1820-2590): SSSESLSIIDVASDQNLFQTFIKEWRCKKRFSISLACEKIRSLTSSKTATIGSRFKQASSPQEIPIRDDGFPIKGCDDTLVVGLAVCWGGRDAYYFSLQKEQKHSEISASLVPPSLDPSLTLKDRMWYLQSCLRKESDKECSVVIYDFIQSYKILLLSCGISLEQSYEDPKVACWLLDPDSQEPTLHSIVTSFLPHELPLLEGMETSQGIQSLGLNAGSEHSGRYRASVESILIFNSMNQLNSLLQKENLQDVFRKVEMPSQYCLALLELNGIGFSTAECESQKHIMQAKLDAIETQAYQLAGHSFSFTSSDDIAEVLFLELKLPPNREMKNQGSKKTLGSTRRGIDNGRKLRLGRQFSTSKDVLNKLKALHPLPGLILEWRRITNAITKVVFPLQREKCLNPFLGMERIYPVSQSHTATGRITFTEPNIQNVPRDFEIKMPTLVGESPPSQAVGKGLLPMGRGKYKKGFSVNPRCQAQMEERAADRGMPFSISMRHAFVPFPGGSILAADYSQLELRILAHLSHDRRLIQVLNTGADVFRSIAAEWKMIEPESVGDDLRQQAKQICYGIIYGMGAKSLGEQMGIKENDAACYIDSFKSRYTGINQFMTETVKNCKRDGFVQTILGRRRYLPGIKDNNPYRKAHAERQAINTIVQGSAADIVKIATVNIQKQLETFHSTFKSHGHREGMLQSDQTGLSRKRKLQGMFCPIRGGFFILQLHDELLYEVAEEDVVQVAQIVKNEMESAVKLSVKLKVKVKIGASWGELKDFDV
# Assay: Polθ Polymerase Domain Kinact/KI Assay (PicoGreen)
# Format: biochemical
# Conditions: 0.8 nM Polθ, 100 nM DNA substrate, kobs vs [I] fit for 2-step covalent inhibitor
# Procedure, shortened: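 Covalent inhibitors were tested against E. coli-expressed enzyme (0.8 nM final) with 100 nM annealed DNA substrate and […] in Tris pH 7.5 buffer, 1% DMSO. Reactions were EDTA-quenched over a 0–60 min time course and product DNA detected by PicoGreen fluorescence.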
row,Compound,Kinact/Kl [µM⁻¹ s⁻¹]
1,"C=CC(=O)N1CC2(CN(CCN3C[C@H]4CC(=O)N(c5cc(C(F)(F)F)cc(C)n5)[C@@H]4C(=O)N(C)c4cccc(F)c43)CCN2)C1 [Example 30, (3aR,11aS)-5-(2-(2-acryloyl-2,5,8-triazaspiro[3.5]nonan-8-yl)ethyl)-6-fluoro-10-methyl-1-(6-methyl-4-(trifluoromethyl)pyridin-2-yl)-1,3a,4,5,10,11a-hexahydro-2H-benzo[b]pyrrolo[2,3-f][1,4]diazocine-2,11(3H)-dione]",0.69
2,"C=CC(=O)N1CC2(CN(CCN3C[C@H]4CC(=O)N(c5cc(C(F)(F)F)cc(C)n5)[C@@H]4C(=O)N(C)c4cccc(Cl)c43)CCN2)C1 [Example 33, (3aR,11aS)-5-(2-(2-acryloyl-2,5,8-triazaspiro[3.5]nonan-8-yl)ethyl)-6-chloro-10-methyl-1-(6-methyl-4-(trifluoromethyl)pyridin-2-yl)-1,3a,4,5, 10,11a-hexahydro-2H-benzo[b]pyrrolo [2,3-f][1,4]diazocine-2,11(3H)-dione]",1.23
3,"C=CC(=O)Nc1ccc(CN2C[C@H]3CC(=O)N(c4cc(C(F)(F)F)cc(C)n4)[C@@H]3C(=O)N(C)c3cccc(Cl)c32)cn1 [Example 282, N-(5-(((3aR,11aS)-6-chloro-10-methyl-1-(6-methyl-4-(trifluoromethyl)pyridin-2-yl)-2,11-dioxo-1,2,3,3a,4,10,11,11a-octahydro-5H-benzo[b]pyrrolo[2,3-f][1,4]diazocin-5-yl)methyl)pyridin-2-yl)acrylamide]",0.87
4,"C=CC(=O)N1Cc2cc(CN3C[C@H]4CC(=O)N(c5cc(C(F)(F)F)cc(C)n5)[C@@H]4C(=O)N(C)c4cccc(C)c43)cnc2C1 [Example 312, (3aR,11aS)-5-((6-acryloyl-6,7-dihydro-5H-pyr-rolo[3,4-b]pyridin-3-yl)methyl)-6,10-dimethyl-1-(6-methyl-4-(trifluoro-methyl)pyridin-2-yl)-1,3a,4,5,10, 11a-hexahydro-2H-benzo[b]pyrrolo [2,3-f][1,4]diazo-cine-2,11(3H)-dione]",1.85
5,"C=CC(=O)N1CC[C@@H]1c1nnc(CN2C[C@H]3CC(=O)N(c4cc(C(F)(F)F)cc(C)n4)[C@@H]3C(=O)N(C)c3cccc(C)c32)o1 [Example 274, (3aR,11aS)-5-((5-((R)-1-acryloylazetidin-2-yl)-1,3,4-oxadiazol-2-yl)methyl)-6,10-dimethyl-1-(6-methyl-4-(trifluoromethyl)pyridin-2-yl)-1,3a,4,5,10,11a-hexahydro-2H-benzo[b]pyrrolo[2,3-f][1,4]diazocine-2,11(3H)-dione]",0.47
6,"C=CC(=O)N1CCn2c(nc(CN3C[C@H]4CC(=O)N(c5cc(C(F)(F)F)cc(C)n5)[C@@H]4C(=O)N(C)c4cccc(C)c43)c2C)C1 [Example 74, (3aR,11aS)-5-((7-acryloyl-3-methyl-5,6,7,8-tetrahydroimidazo[1,2-a]pyrazin-2-yl)methyl)-6,10-dimethyl-1-(6-methyl-4-(trifluoromethyl)pyridin-2-yl)-1,3a,4,5,10,11a-hexahydro-2H-benzo[b]pyrrolo[2,3-f][1,4]diazocine-2,11(3H)-dione]",5.83
7,"C=CC(=O)N1CCN2CC(=O)N(CCN3C[C@H]4CC(=O)N(c5cc(C(F)(F)F)cc(C)n5)[C@@H]4C(=O)N(C)c4cccc(F)c43)C[C@@H]2C1 [Example 47, (3aR,11aS)-5-(2-((S)-8-acryloyl-3-oxooctahydro-2H-pyrazino[1,2-a]pyrazin-2-yl)ethyl)-6-fluoro-10-methyl-1-(6-methyl-4-(trifluoromethyl)pyridin-2-yl)-1,3a,4,5,10,11a-hexahydro-2H-benzo[b]pyrrolo[2,3-f][1,4]diazocine-2,11(3H)-dione]",0.14
8,"Cc1cc(C(F)(F)F)cc(N2C(=O)C[C@@H]3CN(C[C@H]4C[C@H](NC(=O)/C=C/CN(C)C)C4)c4c(C)cccc4N(C)C(=O)[C@H]32)n1 [Example 331, (E)-N-((1R,3r)-3-(((3aR,11aS)-6,10-dimethyl-1-(6-meth-yl-4-(trifluorometh-yl)pyridin-2-yl)-2,11-dioxo-1,2,3,3a, 4,10,11,11a-octa-hydro-5H-benzo[b]pyrrolo[2,3-f][1,4]diazocin-5-yl)meth-yl)cyclobutyl)-4-(dimethylamino)but-2-enamide]",1.85
9,"C=CC(=O)N1C[C@H]2CN(CCN3C[C@H]4CC(=O)N(c5cc(C(F)(F)F)cc(C)n5)[C@@H]4C(=O)N(C)c4cccc(F)c43)CCN2C(=O)[C@H]1C (single isomer, unassigned) [Example 58]",0.50
10,"C=CC(=O)N1CC2(C1)CN(C(=O)CN1C[C@H]3CC(=O)N(c4cc(C(F)(F)F)cc(C)n4)[C@@H]3C(=O)N(C)c3cccc(F)c31)c1nccn12 [Example 106, (3aR,11aS)-5-(2-(1-acryloylspiro[azetidine-3,3′-imidazo[1,2-a]imidazo]-1′(2′H)-yl)ethyl)-6-fluoro-10-methyl-1-(6-methyl-4-(trifluoromethyl)pyridin-2-yl)-1,3a,4,5,10,11a-hexahydro-2H-benzo[b]pyrrolo[2,3-f][1,4]diazocine-2,11(3H)-dione]",1.14
11,"C=C(CN(C)C)C(=O)N1CC(C2CCC(CN3C[C@H]4CC(=O)N(c5cc(C(F)(F)F)cc(C)n5)[C@@H]4C(=O)N(C)c4cccc(Cl)c43)CC2)C1 (stereo partly drawn) [Example 160, (3aR,11aS)-6-chloro-5-((4-(1-(2-((dimethylamino)methyl)acryloyl)azetidin-3-yl)cyclohexyl)methyl)-10-methyl-1-(6-methyl-4-(trifluoromethyl)pyridin-2-yl)-1,3a,4,5,10,11a-hexahydro-2H-benzo[b]pyrrolo[2,3-f][1,4]diazocine-2,11(3H)-dione]",2.30
12,"Cc1cc(C(F)(F)F)cc(N2C(=O)C[C@@H]3CN(CC4CCC(C5CN(C(=O)/C=C/CN(C)C)C5)CC4)c4c(Cl)cccc4N(C)C(=O)[C@H]32)n1 (stereo partly drawn) [Example 155, (3aR, 11aS)-6-chloro-5-((4-(1-((E)-4-(dimethylamino)but-2-enoyl)azetidin-3-yl)cyclohexyl)methyl)-10-methyl-1-(6-methyl-4-(trifluoromethyl)pyridin-2-yl)-1,3a,4,5,10,11a-hexahydro-2H-benzo[b]pyrrolo[2,3-f][1,4]diazocine-2,11(3H)-dione]",2.51
13,"C=C(CN(C)C)C(=O)N1CC(CCCCN2C[C@H]3CC(=O)N(c4cc(C(F)(F)F)cc(C)n4)[C@@H]3C(=O)N(C)c3cccc(Cl)c32)C1 [Example 161, (3aR, 11aS)-6-chloro-5-(4-(1-(2-((dimethylamino)methyl)acryloyl)azetidin-3-yl)butyl)-10-methyl-1-(6-methyl-4-(trifluoromethyl)pyridin-2-yl)-1,3a,4,5,10,11a-hexahydro-2H-benzo[b]pyrrolo[2,3-f][1,4]diazocine-2,11(3H)-dione]",5.08

# Other lines, results leading:
row,Kinact/Kl [µM⁻¹ s⁻¹],Compound
1,0.46,"C=CC(=O)N1CC(N2CCO[C@@H]3CN(CCN4C[C@H]5CC(=O)N(c6cc(C(F)(F)F)cc(C)n6)[C@@H]5C(=O)N(C)c5cccc(F)c54)C[C@H]32)C1 (single isomer, unassigned) [Example 22b]"
2,4.36,"C=CC(=O)N1Cc2nc(CN3C[C@H]4CC(=O)N(c5cc(C(F)(F)F)cc(C)n5)[C@@H]4C(=O)N(C)c4cccc(C)c43)cn2CC1C (single isomer, unassigned) [Example 206a]"
3,1.25,"C=CC(=O)N1C[C@H](F)[C@@H](n2cc(CN3C[C@H]4CC(=O)N(c5cc(C(F)(F)F)cc(C)n5)[C@@H]4C(=O)N(C)c4cccc(C)c43)cn2)C1 (single isomer, unassigned) [Example 325a]"
4,3.31,"C=CC(=O)N1CC(=O)N2CCN(CCN3C[C@H]4CC(=O)N(c5cc(C(F)(F)F)cc(C)n5)[C@@H]4C(=O)N(C)c4cccc(F)c43)CC2C1 (mixture of isomers) [Example 62a, (3aR,11aS)-5-(2-((R/S)-8-acryloyl-6-oxooctahydro-2H-pyrazino[1,2-a]pyrazin-2-yl)ethyl)-6-fluoro-10-methyl-1-(6-methyl-4-(trifluoromethyl)pyridin-2-yl)-1,3a,4,5,10,11a-hexahydro-2H-benzo[b]pyrrolo[2,3-f][1,4]diazocine-2,11(3H)-dione]"
5,3.00,"C=CC(=O)N1CC2(CN(CCN3C[C@H]4CC(=O)N(c5cc(C(F)(F)F)cc(C)n5)[C@@H]4C(=O)N(C)c4cccc(C)c43)CC2C#N)C1 (single isomer, unassigned) [Example 118a]"
